ChEMBL document CHEMBL1156829 (Proc Natl Acad Sci U S A, 2008)

Columns and labels:
[1] = NOVARTIS: Cytotoxicity against human hepatocellular carcinoma cell line (Huh7); type: toxicity, cell-based, Huh-7; settings: Huh7 cells (hepatocellular carcinoma cell line)
Plasmodium falciparum [2] = experiment: NOVARTIS: Inhibition of Plasmodium falciparum W2 (drug-resistant) proliferation in erythrocyte-based infection assay; type: functional, organism-based; settings: Plasmodium falciparum, W2; read-out: EC50
Plasmodium falciparum [3] = experiment: NOVARTIS: Inhibition of Plasmodium falciparum 3D7 (drug-susceptible) proliferation in erythrocyte-based infection assay; type: functional, organism-based; settings: Plasmodium falciparum, 3D7

SMILES	CC50 [1]	EC50 (Plasmodium falciparum [2])	EC50 (Plasmodium falciparum [3])
CCN(CC)CCCC(C)N=c1[nH]c(C=Cc2ccccc2OC)nc2cc(Cl)ccc12 (centres undefined)	7930 nM	160 nM	30.8 nM
Cc1cc(C)[n+]2nc(N)c3ccccc3c2n1.[O-][Cl+3]([O-])([O-])[O-]	> 10000 nM	193 nM	248 nM
CN(C)c1ccc(/C=C2/SC(=Nc3ccccc3)NC2=O)cc1	> 10000 nM	200 nM	109 nM
O=C(CN1CCCC1)Nc1ccc(Cc2ccc(NC(=O)CN3CCCC3)cc2)cc1	18800 nM	367 nM	307 nM
c1cc(-c2nc3ccccc3[nH]2)nc(-c2nc3ccccc3[nH]2)c1	47500 nM	916 nM	686 nM
COC(=O)c1cn([C@@H]2C[C@@H](C(=O)NCc3cccc(C(F)(F)F)c3)N(C3CCN(Cc4ccccc4)CC3)C2)nn1	> 100000 nM	1980 nM	1520 nM
CC(CNC(=O)c1ccccc1)C(=O)OCC(=O)[C@@]12OC(C)(C)O[C@@H]1CC1C3CCC4=CC(=O)C=C[C@]4(C)[C@@]3(F)[C@@H](O)C[C@@]12C (some centres undefined)	8220 nM	159 nM	165 nM
CCN(CC)S(=O)(=O)c1ccc(C(=O)c2c(C)c(C(=O)C(F)(F)F)c3ccccn23)cc1	> 100000 nM	2020 nM	3150 nM
S=C(NN=CC=NNC(=S)Nc1ccccc1)Nc1ccccc1	15000 nM	288 nM	1040 nM
CCOC(=O)c1c(C)n(-c2ccccc2)c2ccc(OC(=O)c3ccccc3NC(=O)C(C)C)cc12	> 100000 nM	1990 nM	885 nM
CC(=O)N(C)C1=C(N2CCCC2)C(=O)c2ccccc2C1=O	15000 nM	299 nM	516 nM
COc1ccc(C=C2N=C(c3ccc(Cl)cc3)N(c3ccccc3)C2=O)cc1OC	> 100000 nM	1990 nM	> 12500 nM
COc1ccc(NC(=O)c2cc3cc(C4(O)CCN(CC(C)c5ccccc5)CC4)ccc3o2)cc1 (centres undefined)	> 100000 nM	1980 nM	2400 nM
COC(C)(C)CNCc1cc2cc3c(cc2n(Cc2cccc(C(F)(F)F)c2)c1=O)CCC3	> 10000 nM	> 198 nM	> 1250 nM
C#CC(C)(C)NC(=O)c1ccc(-c2ccc(CC)cc2)cc1	> 100000 nM	1970 nM	3030 nM
COc1cc(OC)c(NC(=O)c2ccc(N3CC4CC(C3)c3cccc(=O)n3C4)c([N+](=O)[O-])c2)cc1Cl (centres undefined)	> 100000 nM	1930 nM	9690 nM
CCCCn1c(=N)n(CC(O)c2ccc(Cl)c(Cl)c2)c2ccccc21 (centres undefined)	6240 nM	120 nM	62.5 nM
COc1cccc(-c2cn3c(n2)sc2cc(C(=O)NC4CCN(Cc5ccccc5)CC4)ccc23)c1	> 100000 nM	1980 nM	513 nM
CCCc1ccc(C(=O)NC(=O)c2ccccc2O)cc1	16500 nM	325 nM	193 nM
CC(=O)N(C=C1Sc2ccccc2C1=O)c1ccc(C)cc1	> 100000 nM	1970 nM	10700 nM
C=CC(C)(CCC=C(C)C)c1ccc2c3c(c[nH]c13)CC(CO)NC(=O)C(C(C)C)N2C (centres undefined)	> 10000 nM	197 nM	552 nM
COc1cccc(C=NNC(=O)CSc2ccccc2C)c1O	> 100000 nM	1960 nM	7940 nM
COc1ccc(S(=O)(=O)N(C)CCCNc2ccnc3cc(Cl)ccc23)cc1	10100 nM	197 nM	115 nM
Cc1cccc(NC(=O)c2cc(Cl)nc3ccccc23)c1	> 100000 nM	1940 nM	3670 nM
Cc1ccc(C(=O)NNc2nc(Nc3ccccc3)nc(N3CCCC3)n2)cc1	> 100000 nM	1990 nM	> 12500 nM
CN(C)S(=O)(=O)c1ccc(C(=O)Nc2nc3c(ccc4ccccc43)s2)cc1	> 100000 nM	1970 nM	> 9470 nM
CN(CCCNc1ccnc2cc(Cl)ccc12)S(=O)(=O)c1ccc([N+](=O)[O-])cc1	> 11100 nM	217 nM	240 nM

SMILES	CC50 [1]	EC50 (Plasmodium falciparum [2])	EC50 (Plasmodium falciparum [3])
CC1CN(C2CC(=O)N(c3ccccc3)C2=O)CC(C)O1 (centres undefined)	> 10000 nM	> 195 nM	873 nM
CC1=C(C(=O)OC2CCCCC2)C(c2cccc([N+](=O)[O-])c2)C2=C(CCCC2=O)N1 (centres undefined)	68400 nM	1330 nM	1640 nM
CC(=O)c1cccc(CN2CCC(C(=O)Nc3ccc(-n4nc(C)cc4C)cc3)CC2)c1	> 100000 nM	1950 nM	2160 nM
CC(C)c1ccc(C=CC(=O)NCc2ccco2)cc1	> 100000 nM	2000 nM	1480 nM
O=c1c2[nH]c3ccccc3c2ncn1Cc1ccc2c(c1)OCO2	> 100000 nM	2000 nM	> 12500 nM
Cc1nc(-c2ccc[n+](C)c2)sc1C(=O)/C=C/c1ccc(Cl)cc1	> 10000 nM	200 nM	283 nM
COc1ccc(CN2CCN(C(=O)c3cccnc3)CC2)cc1OC	> 100000 nM	2010 nM	349 nM
COc1cc(-c2nc(-c3ccccc3)c(-c3cccc(C(F)(F)F)c3)[nH]2)cc(OC)c1O	44900 nM	902 nM	622 nM
FC(F)(F)c1ccc(-c2nc(C34CC5CC(CC(C5)C3)C4)cs2)cc1	> 10000 nM	200 nM	1570 nM
CCN(CC)CCCNC(=S)N(CCN(C)C)Cc1cc2cc(C)cc(C)c2[nH]c1=O	> 100000 nM	2000 nM	2420 nM
Cc1cccc(NC(=O)c2ccc(N3CC4CC(C3)c3cccc(=O)n3C4)c(NC(=O)Cc3c(F)cccc3Cl)c2)n1 (centres undefined)	> 10000 nM	197 nM	> 1450 nM
CCC(COC)NC(=O)c1cn(C2CCCCC2)cc(C(=O)NC(C)(C)C)c1=O (centres undefined)	> 100000 nM	1980 nM	2900 nM
O=C(O)CC(c1ccc2c(c1)OCO2)N1CCS(=O)(=O)CC1 (centres undefined)	> 10000 nM	> 196 nM	> 1250 nM
O=C(Cc1cccs1)N1CCN(c2ccccn2)CC1	> 100000 nM	1930 nM	3950 nM
O=C(Nc1ccc(-c2nc3cc(NC(=O)c4cccs4)ccc3[nH]2)cc1)c1cccs1	> 100000 nM	2010 nM	1550 nM
O=C(CSc1ccc(Cl)cc1)NN=C1C(=O)Nc2ccccc21	> 100000 nM	> 1990 nM	> 12500 nM
C=C[C@H]1CN2CC[C@H]1C[C@@H]2[C@@H](OC(=O)C(C)C)c1ccnc2ccccc12	> 10000 nM	199 nM	318 nM
Cc1cc(N2CCCCC2)nc(NCc2ccccc2)n1	38400 nM	739 nM	5760 nM
CCOC(=O)CCCSc1nc(-c2cccs2)cc(C(F)(F)F)c1C#N	> 10000 nM	198 nM	352 nM
COc1cc(NCCCC(C)Nc2ccnc3cc4ccccc4cc23)c2ncccc2c1 (centres undefined)	2470 nM	49.9 nM	83.5 nM
CNC1CC2OC(C)(C1OC)n1c3ccccc3c3c4c(c5c6ccccc6n2c5c31)C(=O)NC4O (centres undefined)	[…]	> 195 nM	190 nM
Cc1ncc([N+](=O)[O-])n1CCOC(=O)c1c(NC(=O)c2ccccc2)sc2c1CCCC2	> 100000 nM	2000 nM	2600 nM
O=C1NC(=S)NC1=Cc1cccc(Oc2ccccc2)c1	> 100000 nM	1940 nM	> 6890 nM
CN(CCCNc1ccnc2cc(Cl)ccc12)C(=O)C(C)(C)CCl	> 10000 nM	192 nM	94.9 nM
CCOc1ccc2nc3cc(NCc4ccco4)ccc3c(N)c2c1	37900 nM	757 nM	846 nM
CCOC(=O)c1cc(-c2ccccc2)n(CCC(=O)Nc2ccccc2N2CCN(C)CC2)c1C	17300 nM	336 nM	794 nM
